Experiment: Antagonist activity against human D3R expressed in CHO cells assessed as inhibition of quinpirole-induced mitogenesis after 16 hrs by [3H]thymidine uptake assay

Row | IC50 [nM] | Compound
1 | 7.2 | O=C(NCCCCN1CCN(c2cccc(Cl)c2Cl)CC1)c1cn2ccccc2n1
2 | 208 | CC(C)(C)c1nc(N2CCN(CCCCNC(=O)c3nc4ccccc4[nH]3)CC2)cc(C(F)(F)F)n1
3 | 3 | COc1ccccc1N1CCN(CCCCNC(=O)c2cn3ccccc3n2)CC1
4 | 940 | O=C(NCCCCN1CCN(c2ncnc3ccccc23)CC1)c1cn2ccccc2n1

— BindingDB's records for doi:10.1021/jm500801r (Southern Research Institute, 2014)
